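Growth conditions: 96-well plates. Treatment: test compound, 48 hours, 5 concentrations. Analysis: linear interpolation between bracketing concentrations; unreached endpoints set to highest concentration. Here, GI50 denotes the concentration required for 50% inhibition of growth. At the TGI there is no net growth.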

Among the test systems are CAKI-1 renal; SF-295 CNS; PC-3 prostate; CCRF-CEM leukemia; SN12C renal; 786-0 renal; SK-MEL-28 melanoma; HS 578T breast; SR leukemia; NCI-H226 lung.
Assay in all cases: growth of human tumour cells (NCI), 48 h

`CCCNc1ncnc2[nH]ncc12`: the TGI in the assay on CAKI-1 renal, in the assay with SF-295 CNS, in the assay with PC-3 prostate, in the assay on CCRF-CEM leukemia, with SN12C renal and in the assay with 786-0 renal was > 100 µM throughout. Further, the TGI in the assay on SK-MEL-28 melanoma, with HS 578T breast and in the assay on SR leukemia was > 100 µM in each case.

As to `COc1c(C)c(C/C=C(\C)CC/C=C(\C)CCC=C(C)C)c(OC)c(OC)c1OC`, the TGI in the assay with CAKI-1 renal, in the assay on SF-295 CNS, in the assay with PC-3 prostate, in the assay on CCRF-CEM leukemia, in the assay with SN12C renal and with 786-0 renal was > 100 µM throughout. In addition, the TGI in the assay on HS 578T breast and in the assay on SR leukemia was > 100 µM in each case.

Turning to `NC1=NCC(CN2CCCC2)O1` (stereo unspecified), the TGI in the assay with CAKI-1 renal, with SF-295 CNS, in the assay with PC-3 prostate, with CCRF-CEM leukemia, in the assay on SN12C renal and in the assay with 786-0 renal was > 100 µM in each case. Also, the TGI with SK-MEL-28 melanoma, with HS 578T breast and in the assay on SR leukemia was > 100 µM each time.

On to `CSc1nc(NC(C)C)c2c(n1)Sc1nc3ccccc3n1C2O` (stereo unspecified), for which the TGI is > 100 µM in the assay with CAKI-1 renal; > 100 µM with SF-295 CNS; > 100 µM with PC-3 prostate; 4.95 µM in the assay on CCRF-CEM leukemia; > 100 µM with SN12C renal; > 100 µM in the assay with 786-0 renal. Further, the TGI with SK-MEL-28 melanoma was > 100 µM; in the assay on HS 578T breast, 13.4 µM; in the assay with SR leukemia, > 100 µM.

In the case of `Cc1cc2cc3c(cc2c(-c2ccc(N)cc2)n1)OCO3`, the TGI is 75.4 µM in the assay with CAKI-1 renal; > 100 µM in the assay on SF-295 CNS; > 100 µM in the assay with PC-3 prostate; > 100 µM in the assay with CCRF-CEM leukemia; > 100 µM in the assay on SN12C renal; 57.4 µM in the assay on 786-0 renal. Also, the TGI with HS 578T breast was > 100 µM; in the assay with SR leukemia, 52.5 µM.

For the compound `CCC(CC(C)C)Nc1ccc(NC(CC)CC(C)C)cc1` (stereo unspecified), the GI50 in the assay with NCI-H226 lung is 15.3 µM; in the assay on CAKI-1 renal, 40.2 µM; in the assay on SF-295 CNS it was 23 µM; with PC-3 prostate it was 4 µM; in the assay with CCRF-CEM leukemia, 6.6 µM; in the assay on SN12C renal, 16 µM. For the same compound, the GI50 is 13.7 µM in the assay with SK-MEL-28 melanoma, 25 µM in the assay on HS 578T breast and 15.1 µM with SR leukemia. Also, the TGI was 29.9 µM with NCI-H226 lung; > 100 µM in the assay on CAKI-1 renal; 61.4 µM in the assay with SF-295 CNS; 16.3 µM in the assay with PC-3 prostate; 27.8 µM in the assay on CCRF-CEM leukemia; 32.2 µM in the assay with SN12C renal. In addition, the TGI in the assay on SK-MEL-28 melanoma is 28.1 µM; in the assay with HS 578T breast it was > 100 µM; with SR leukemia, 39.7 µM.

For the compound `O=C(Nc1cccc(-n2cc(-c3ccncc3)c(-c3ccc(O)c(Cl)c3)n2)c1)c1cccc(C(F)(F)F)c1`, the GI50 in the assay with NCI-H226 lung was 7.17 µM; in the assay on CAKI-1 renal, 2.83 µM; with SF-295 CNS it was 2.98 µM; in the assay on PC-3 prostate, 3.62 µM; with CCRF-CEM leukemia, 1.88 µM; in the assay on SN12C renal, 6.44 µM. Moreover, the GI50 with SK-MEL-28 melanoma is 4.63 µM; in the assay on HS 578T breast, 2.26 µM; in the assay on SR leukemia, 1.6 µM. Further, the TGI in the assay on NCI-H226 lung, in the assay on CAKI-1 renal, in the assay with SF-295 CNS, with PC-3 prostate, in the assay with CCRF-CEM leukemia and in the assay on SN12C renal was > 100 µM each time. The TGI with SK-MEL-28 melanoma was > 100 µM; in the assay on HS 578T breast, > 100 µM; in the assay with SR leukemia it was 8.1 µM.

On to `Cc1[nH]c(=O)[nH]c(=S)c1C(=O)Nc1cccc2cc3ccccc3cc12`, for which the TGI with NCI-H226 lung, with CAKI-1 renal, with SF-295 CNS, in the assay with PC-3 prostate, with CCRF-CEM leukemia and with SN12C renal was > 100 µM throughout. For the same compound, the TGI in the assay with SK-MEL-28 melanoma, in the assay with HS 578T breast and in the assay with SR leukemia was > 100 µM in each case.

`CN(C)c1ccc(/C=C2\N=C(c3ccccc3)N(c3ccc4c(c3)Sc3cc(N5C(=O)/C(=C/c6ccc(N(C)C)cc6)N=C5c5ccccc5)ccc3N4)C2=O)cc1`: the TGI came out at 37.4 µM in the assay with CAKI-1 renal; 36 µM in the assay on SF-295 CNS; 34.4 µM in the assay with PC-3 prostate; 20.1 µM in the assay on CCRF-CEM leukemia; 38.9 µM with SN12C renal; 45.6 µM with 786-0 renal. The figures for the TGI in the assay on SK-MEL-28 melanoma, in the assay with HS 578T breast and in the assay on SR leukemia were > 100 µM, 72.7 µM and > 100 µM, respectively.

For `CSc1ccc(/C=C2\N=C(c3ccccc3)N(/N=C/c3cc4cc(C)ccc4nc3Cl)C2=O)cc1`, the TGI is 45.3 µM in the assay with CAKI-1 renal; 44.7 µM with SF-295 CNS; 38 µM in the assay on PC-3 prostate; > 100 µM with CCRF-CEM leukemia; 35.6 µM with SN12C renal; 35.1 µM in the assay on 786-0 renal. Also, the TGI is 37.6 µM in the assay with SK-MEL-28 melanoma, 65.9 µM in the assay on HS 578T breast and 44.2 µM in the assay on SR leukemia.
